{"source": "patent US10669537B2", "about": "“Mutagenizing intracellular nucleic acids” (priority 2016, dated 2020)", "key": {"E. coli K-12 MG1655 [1]": {"test_system": "E. coli K-12 MG1655", "type": "cell-based, Escherichia coli", "details": "ciprofloxacin two-fold higher than wild-type MIC, LB agar", "experimental": "All four constituents were mutagenized along the full lengths of their corresponding protein-coding DNA regions in their native genomic context. Accordingly, a single round of rMAGE mutagenesis was performed in E. coli K-12 MG1655, using SEQ ID NO:37-SEQ ID NO:167.\nHowever, ciprofloxacin also has lower binding affinity to the homologous DNA topoisomerase IV complex (Khodursky, Zechiedrich, and Cozzarelli 1995). Therefore, mutagenesis at the target sites was assayed by a ciprofloxacin frequency-of-resistance assay."}, "[2]": {"test_system": "Saccharomyces cerevisiae BY4741 URA3+", "assay": "5-FOA resistance frequency after URA3 mutagenesis", "type": "cell-based", "details": "one cycle of URA3 soft-randomized oligo pool mutagenesis; 5-FOA SD agar plates", "from_the_text": "To perform mutagenesis without necessitating additional genomic modifications and thus keeping the flexibility of the prokaryotic, pORTMAGE-based approach, the wild-type yeast homologous recombination system was employed to set-up overlapping, soft-randomized oligo pool-mediated mutagenesis. As the target, the endogenous URA3 gene in Saccharomyces cerevisiae BY4741 URA3+(SEQ ID NO:221), encoding orotidine 5-phosphate decarboxylase was chosen. Loss-of-function URA3 mutants can be readily selected based on their 5-Fluoroorotic Acid (5-FOA)-resistant phenotype on 5-FOA containing agar plates (DiCarlo et al. 2013). Therefore, mutagenesis was assayed as the fraction of resistant cells towards 5-FOA in diversified cell populations compared with the frequency of an unmutagenized control. Using 11 overlapping spiked oligo pools (SEQ ID NO:200-SEQ ID NO:210), a single overlapping, soft-randomized oligo pool-mediated mutagenesis cycle was performed.\nSpecifically, overlapping, soft-randomized oligos for S. cerevisiae URA3 were designed to target the non-coding strand of URA3 (YEL021W, SEQ ID NO:221). Spiked oligonucleotides were synthesized as described in Example 1. Yeast-mutagenesis was performed by delivering oligonucleotides to S. cerevisiae BY4741 URA3+ cells by electroporation. […] As the next step, URA3 mutagenesis was assessed by measuring 5-fluoroorotic acid (5-FOA) resistance frequency. […]"}, "E. coli K-12 MG1655 [3]": {"test_system": "E. coli K-12 MG1655", "details": "L28R", "experimental": "As a measure of the effect of each individual genotype, relative IC75 values for each of the corresponding mutants were determined and compared to the IC75 of the wild-type."}, "[4]": {"test_system": "parental Escherichia coli K-12 MG 1655", "experimental": "Subsequently, the genotype of around 1000 resistant mutants was determined by High-Throughput (HT) SMRT sequencing."}}, "note": "Where two headings read alike, the source gives them in different places."}
{"compound": "O=C(O)c1cn(C2CC2)c2cc(N3CCNCC3)c(F)cc2c1=O", "note": "[ciprofloxacin]", "values": [{"measurement": "frequency of ciprofloxacin resistant variants", "setting": "E. coli K-12 MG1655 [1]; cell population mutagenized at gyrA, gyrB, parC, parE", "result": "10^−4"}, {"measurement": "frequency of ciprofloxacin resistant variants", "setting": "E. coli K-12 MG1655 [1]; non-mutagenised control cell populations", "result": "1.83*10^−7"}]}
{"compound": "O=C(O)c1[nH]c(=O)[nH]c(=O)c1F", "note": "[5-FOA, 5-Fluoroorotic Acid]", "values": [{"measurement": "upregulation of the fraction of 5-FOA resistant cells compared to background level", "setting": "[2]", "result": 77, "unit": "fold"}]}
{"compound": "COc1cc(Cc2cnc(N)nc2N)cc(OC)c1OC", "note": "[Trimethoprim, trimethoprim]", "values": [{"measurement": "Trimethoprim IC75 value", "setting": "E. coli K-12 MG1655 [3]; strain E. coli MG1655 1, folA C-58T, A26T, P39R", "result": 1162, "unit": "µg/mL"}, {"measurement": "Trimethoprim IC75 value", "setting": "E. coli K-12 MG1655 [3]; strain E. coli MG1655 2, folA C-58T, A26T, P39R", "result": 1162, "unit": "µg/mL"}, {"measurement": "Trimethoprim IC75 value", "setting": "E. coli K-12 MG1655 [3]; strain E. coli MG1655 3, folA C-58T, A26T, P39R", "result": 1346, "unit": "µg/mL"}, {"measurement": "Trimethoprim IC75 value", "setting": "E. coli K-12 MG1655 [3]; strain E. coli MG1655 4, folA C-58T, A26T, P39R", "result": 1254, "unit": "µg/mL"}, {"measurement": "Trimethoprim IC75 value", "setting": "E. coli K-12 MG1655 [3]; strain E. coli MG1655 5, folA C-58T, A26T, P39R", "result": 1162, "unit": "µg/mL"}, {"measurement": "Trimethoprim IC75 value", "setting": "E. coli K-12 MG1655 [3]; strain E. coli MG1655 6, folA C-58T, A26T, P39R", "result": 1254, "unit": "µg/mL"}, {"measurement": "Trimethoprim IC75 value", "setting": "E. coli K-12 MG1655 [3]; strain E. coli MG1655 7, folA C-58T", "result": 448, "unit": "µg/mL"}, {"measurement": "Trimethoprim IC75 value", "setting": "E. coli K-12 MG1655 [3]; strain E. coli MG1655 8, folA C-58T, T-74A, N147D", "result": 448, "unit": "µg/mL"}, {"measurement": "Trimethoprim IC75 value", "setting": "E. coli K-12 MG1655 [3]; strain E. coli MG1655 9, folA C-58T", "result": 610, "unit": "µg/mL"}, {"measurement": "Trimethoprim IC75 value", "setting": "E. coli K-12 MG1655 [3]; strain E. coli MG1655 10, folA C-58T", "result": 610, "unit": "µg/mL"}, {"measurement": "Trimethoprim IC75 value", "setting": "E. coli K-12 MG1655 [3]; strain E. coli MG1655 11, folA C-58T", "result": 518, "unit": "µg/mL"}, {"measurement": "Trimethoprim IC75 value", "setting": "E. coli K-12 MG1655 [3]; strain E. coli MG1655 12, folA C-43T, C-58T, A26D, H45R", "result": 794, "unit": "µg/mL"}, {"measurement": "growth on trimethoprim solid media", "setting": "[4]", "result": "cannot grow"}]}
